This is an account of results in patent US8231869B2, “Recombinant plasmin for opthalmic indications” (priority 2005, dated 2012).

Like-named read-outs stand apart in the source and are kept apart here. Where a SMILES comes first, the peptide text is derived from it. [ ]: non-standard residue; d: D form. The star is where a group is joined. pNA = O=[N+]([O-])c1ccc(N*)cc1

Data set [1] concerns the target delta-plasmin (recombinant human plasmin deletion mutant, kringle 1-serine protease domain, deletion of K2-5; from delta-plasminogen SEQ ID NO: 2) (Homo sapiens, UniProt P00747, DELINS146-524/G536N/G539Q/K528E/L551R/N547D/P558L/Q559E/R549E/V538P/V557I). The experiment in a line: Amidolytic activity, steady-state kinetics with substrate S-2251. The format is biochemical. The following applies: substrate S-2251, PBS buffer, pH 7.4, 25° C.

Data set [2] concerns the target human micro-plasmin (plasmin lacking all five kringles) (Homo sapiens, UniProt P00747). Described as above. The following applies: substrate S-2251, PBS buffer, pH 7.4, 25° C. The format is biochemical.
In data set [3] the target is human plasmin (full-length; native human plasminogen SEQ ID NO: 4) (Homo sapiens, UniProt P00747). The description is as above. The following applies: substrate S-2251, PBS buffer, pH 7.4, 25° C. It is filed as biochemical.
Chain of human plasmin (full-length; native human plasminogen SEQ ID NO: 4) (P00747 97-580 partner limits assumed, one chain of several): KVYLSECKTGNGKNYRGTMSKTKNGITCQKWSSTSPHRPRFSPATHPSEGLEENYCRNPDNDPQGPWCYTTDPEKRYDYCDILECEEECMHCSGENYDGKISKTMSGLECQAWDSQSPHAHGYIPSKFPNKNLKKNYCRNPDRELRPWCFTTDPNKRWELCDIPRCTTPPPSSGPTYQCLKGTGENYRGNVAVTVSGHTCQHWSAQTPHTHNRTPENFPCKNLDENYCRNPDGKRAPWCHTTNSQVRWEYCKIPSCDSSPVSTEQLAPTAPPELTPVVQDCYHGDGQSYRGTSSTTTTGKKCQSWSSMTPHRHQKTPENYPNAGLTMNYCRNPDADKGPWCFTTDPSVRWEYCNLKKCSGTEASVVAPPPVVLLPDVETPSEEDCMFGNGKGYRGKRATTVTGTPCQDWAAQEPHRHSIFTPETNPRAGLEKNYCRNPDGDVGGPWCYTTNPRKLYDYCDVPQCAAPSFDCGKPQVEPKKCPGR
The target of data set [4] is kringle 1 (of human plasminogen). The settings on record: literature value, et al., read-out: kringle 1 affinity for εACA (Kd), cited from earlier work.
Substrate in data set [5]: CC(C)C[C@H](NC(=O)[C@H](N)C(C)C)C(=O)N[C@@H](CCCCN)C(=O)Nc1ccc([N+](=O)[O-])cc1
The experiment in a line: purified protein, by the assay type. The following applies: other: substrate S-2251, PBS buffer, pH 7.4, 25° C. It is filed as biochemical, human.

Chain of delta-plasmin (recombinant human plasmin deletion mutant, kringle 1-serine protease domain, deletion of K2-5; from delta-plasminogen SEQ ID NO: 2) (P00747 with tags, fused parts or gaps K528E/G536N/V538P/G539Q/N547D/R549E/L551R/V557I/P558L/Q559E limits assumed): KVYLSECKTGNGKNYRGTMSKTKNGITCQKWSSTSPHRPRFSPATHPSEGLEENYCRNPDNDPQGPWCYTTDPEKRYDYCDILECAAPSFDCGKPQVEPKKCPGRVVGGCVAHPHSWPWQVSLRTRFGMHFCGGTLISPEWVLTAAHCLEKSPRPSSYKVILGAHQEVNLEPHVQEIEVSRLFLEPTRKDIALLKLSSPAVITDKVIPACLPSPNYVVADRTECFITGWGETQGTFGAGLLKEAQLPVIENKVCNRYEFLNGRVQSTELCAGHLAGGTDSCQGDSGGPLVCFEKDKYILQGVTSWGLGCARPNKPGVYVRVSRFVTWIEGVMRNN

Broadly, the kcat is the maximal rate divided by the concentration of active sites. Take `CC(C)C[C@H](NC(=O)[C@H](N)C(C)C)C(=O)N[C@@H](CCCCN)C(=O)Nc1ccc([N+](=O)[O-])cc1` [S-2251, D-Val-Leu-Lys-p-nitroanilide] (H-[dV]-Leu-Lys-pNA): the kcat in data set [1] (corrected for percent active sites (67%, PNPGB titration)) was 12.6 ± 0.75 s⁻¹; in data set [2] it was 13.2 ± 0.4 s⁻¹; in data set [3], 12.7 ± 0.383 s⁻¹. Further, in data set [1] (not corrected for percent active sites), the “kcat (for the preparation)” value was found to be 8.5 s⁻¹.
The Kd is the concentration at which binding is half-saturated. For the molecule `NCCCCCC(=O)O` [εACA, ε-aminocaproic acid], the Kd in data set [4] (Douglas) is 13 µM; in data set [4] (Matsuka), 3.2 µM.

B1: human plasmin (full-length; native human plasminogen SEQ ID NO: 4) (Homo sapiens) (protein)
chain: VVGGCVAHPHSWPWQVSLRTRFGMHFCGGTLISPEWVLTAAHCLEKSPRPSSYKVILGAHQEVNLEPHVQEIEVSRLFLEPTRKDIALLKLSSPAVITDKVIPACLPSPNYVVADRTECFITGWGETQGTFGAGLLKEAQLPVIENKVCNRYEFLNGRVQSTELCAGHLAGGTDSCQGDSGGPLVCFEKDKYILQGVTSWGLGCARPNKPGVYVRVSRFVTWIEGVMRNN
notes: The C-terminal light chain of plasmin (residues 562-791); The amino-terminal heavy chain of plasmin
On to B1, for which, in data set [5], the Km was 193 +/− 7 μM μM and the kcat is 760 +/− 23 min^−1 min^−1.

B2: human micro-plasmin (plasmin lacking all five kringles) (Homo sapiens) (protein)
chain: VVGGCVAHPHSWPWQVSLRTRFGMHFCGGTLISPEWVLTAAHCLEKSPRPSSYKVILGAHQEVNLEPHVQEIEVSRLFLEPTRKDIALLKLSSPAVITDKVIPACLPSPNYVVADRTECFITGWGETQGTFGAGLLKEAQLPVIENKVCNRYEFLNGRVQSTELCAGHLAGGTDSCQGDSGGPLVCFEKDKYILQGVTSWGLGCARPNKPGVYVRVSRFVTWIEGVMRNN
notes: micro-plasmin (lacking all five kringles)
As to B2, in data set [5], the Km is given as 145 +/− 13 μM μM and the turnover number (kcat) was 795 +/− 24 min^−1 min^−1.

B3: human mini-plasmin (plasmin fragment, domain composition K5-SP; mini-plasminogen residues Val443-Asn791) (Homo sapiens) (protein)
chain: VVGGCVAHPHSWPWQVSLRTRFGMHFCGGTLISPEWVLTAAHCLEKSPRPSSYKVILGAHQEVNLEPHVQEIEVSRLFLEPTRKDIALLKLSSPAVITDKVIPACLPSPNYVVADRTECFITGWGETQGTFGAGLLKEAQLPVIENKVCNRYEFLNGRVQSTELCAGHLAGGTDSCQGDSGGPLVCFEKDKYILQGVTSWGLGCARPNKPGVYVRVSRFVTWIEGVMRNN
notes: includes residues Val443-Asn791 and consists of the fifth kringle and the serine protease domain
For B3, in data set [5], the Km is 160 +/− 30 μM μM and the kcat is listed as 770 +/− 70 min^−1 min^−1.
